Reference: patent US10752612B2, “PLK4 inhibitors” (LUDWIG INSTITUTE FOR CANCER RESEARCH LTD, priority 2015, dated 2020)

Biological target: T1, human Plk4 kinase domain (aa 2-275) (Homo sapiens, UniProt O00444)
T1 construct: purified 6×His-tagged human Plk4 kinase domain (aa 2-275); 6xHis; made in house; host or cells: E. coli
T1 sequence (O00444 2-275): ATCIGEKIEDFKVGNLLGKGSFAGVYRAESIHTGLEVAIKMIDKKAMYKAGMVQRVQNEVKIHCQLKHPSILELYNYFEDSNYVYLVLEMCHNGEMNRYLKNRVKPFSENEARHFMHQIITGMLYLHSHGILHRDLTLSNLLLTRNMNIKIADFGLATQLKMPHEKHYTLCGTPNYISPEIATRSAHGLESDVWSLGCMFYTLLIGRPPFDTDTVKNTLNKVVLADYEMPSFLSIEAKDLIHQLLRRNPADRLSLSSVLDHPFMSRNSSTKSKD
Test: Plk4 kinase assay (ADP-Glo)
Format: biochemical
Conditions: Table 1
How it was run: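 Enzyme at 2.5-10 nM final, pH 8.0, reacted 4-16 hours at 25° C; ADP generation read by ADP-Glo luminescence. Ki derived from IC50 by Cheng-Prusoff or, for tight binders, Copeland formalism.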

IC50 [nM] | SMILES
< 1000 | CCS(=O)(=O)c1ccc(Sc2nc(Nc3cc(C)[nH]n3)c(OC)c(N3CCC(CCN(C)C)CC3)n2)cc1
< 1000 | Cc1cc(Nc2nc(Sc3ccc(NC(=O)C4CCCC4)cc3)nc3c2C(C)CC3)n[nH]1 (stereo not drawn)
< 1000 | COc1c(Nc2cc(C)[nH]n2)nc(Sc2ccc(S(=O)(=O)Cc3ccccc3)cc2)nc1N1CCN(C2CCN(C)CC2)CC1
< 1000 | COc1c(Nc2cc(C)[nH]n2)nc(Sc2ccc(NC(C)=O)cc2)nc1N1CCN(CCN(C)OC)CC1
100 to 1000 | COc1c(NCCN(C)C)nc(Sc2ccc(NC(=O)C3CC3)cc2)nc1Nc1cc(C)[nH]n1
< 1000 | CCOc1c(Nc2cc(C)[nH]n2)nc(Sc2ccc(NC(=O)C3CC3)cc2)nc1N1CCC(O)CC1
< 1000 | CCOc1c(Nc2cc(C)[nH]n2)nc(Sc2ccc(NC(C)=O)cc2)nc1N1CCC(O)CC1
< 1000 | CCC1CCc2nc(Sc3ccc(NC(=O)C4CC4)cc3)nc(Nc3cc(C)[nH]n3)c21 (stereo not drawn)
< 1000 | CNC(=O)c1ccc(Sc2nc(Nc3cc(C)[nH]n3)c(OC)c(N3CCN(CCN(C)C)CC3)n2)cc1
< 1000 | COc1c(Nc2cc[nH]n2)nc(Sc2ccc(S(=O)(=O)Cc3ccccc3)cc2)nc1N1CCN(CCN(C)C)CC1
< 1000 | COc1c(Nc2ncc(C)s2)nc(Sc2ccc(NC(C)=O)cc2)nc1N1CCN(CCN(C)C)CC1
< 1000 | Cc1cc(Nc2nc(Sc3ccc(S(=O)(=O)Cc4ccccc4)cc3)nc(N3CCN(CCN(C)C)CC3)c2OC(C)C)n[nH]1
< 1000 | CNCCN1CCN(c2nc(Sc3ccc(NC(C)=O)cc3)nc(Nc3cc(C)[nH]n3)c2OC)CC1
100 to 1000 | CCOc1c(Nc2cc(C)[nH]n2)nc(Sc2ccc(NC(C)=O)cc2)nc1N1CCOCC1
< 1000 | COc1c(Nc2cc(C)[nH]n2)nc(Sc2ccc(NC(=O)C(F)(F)F)cc2)nc1N1CCN(CCN(C)C)CC1
> 1000 | CCOc1c(Nc2cc(C)[nH]n2)nc(Sc2ccc(NC(=O)C3CCCC3)cc2)nc1N1CCN(C(=O)CCN(C)C)CC1
100 to 1000 | CCOc1c(Nc2cc(C)[nH]n2)nc(Sc2ccc(NC(=O)C3CCCC3)cc2)nc1N1CCN(C(=O)CCOC)CC1
< 1000 | CCCOc1c(Nc2cc(C)[nH]n2)nc(Sc2ccc(S(=O)(=O)Cc3ccccc3)cc2)nc1N1CCN(CCN(C)C)CC1
< 1000 | CCN(CC)c1nc(Sc2ccc(NC(=O)C3CC3)cc2)nc(Nc2cc(C)[nH]n2)c1C

IC50 [nM] | SMILES
< 1000 | CCS(=O)(=O)c1ccc(Sc2nc(Nc3cc(C)[nH]n3)c(OC)c(N3CCOCC3)n2)cc1
< 1000 | COc1c(Nc2cc(C)[nH]n2)nc(Sc2ccc(S(=O)(=O)Cc3cccc(C(=O)N(C)C)c3)cc2)nc1N1CCN(CCN(C)C)CC1
100 to 1000 | CCOc1c(Nc2cc(C)[nH]n2)nc(Sc2ccc(NC(=O)C3CC3)cc2)nc1N(C)C [drawing 129]
< 1000 | COc1c(Nc2cc(C)[nH]n2)nc(Sc2ccc(NC(C)=O)cc2)nc1NC1CCN(C)CC1
< 1000 | COc1c(Nc2cc(C)[nH]n2)nc(Sc2ccc(S(=O)(=O)Cc3ccccc3)cc2)nc1N1CCN(CCN2CCC2)CC1
< 1000 | CC(=O)Nc1ccc(Sc2nc(Nc3cc(C)[nH]n3)c(C)c(C3CCN(CCN(C)C)CC3)n2)cc1
< 1000 | COc1c(Nc2cc(C)[nH]n2)nc(Sc2ccc(S(=O)(=O)Cc3cccc(C#N)c3)cc2)nc1N1CCN(CCN(C)C)CC1
100 to 1000 | CCCOc1c(Nc2cc(C)[nH]n2)nc(Sc2ccc(NC(=O)C3CC3)cc2)nc1N(CC)CC
< 1000 | COc1c(Nc2cc(C)[nH]n2)nc(Sc2ccc(NC(C)=O)cc2)nc1C1=CCN(CCN(C)C)CC1
< 1000 | CC(=O)Nc1ccc(Sc2nc(Nc3cc(C)[nH]n3)c(C)c(N3CCN(C(=O)CCN(C)C)CC3)n2)cc1
< 1000 | COc1c(Nc2cc(C)[nH]n2)nc(Sc2ccc(S(=O)(=O)Cc3cccc([N+](=O)[O-])c3)cc2)nc1N1CCOCC1
< 1000 | COc1c(Nc2cc(C)[nH]n2)nc(Sc2ccc(S(=O)(=O)C(C)(C)c3cccc([N+](=O)[O-])c3F)cc2F)nc1N1CCC(CCN(C)C)CC1
< 1000 | COc1c(Nc2cc(C)[nH]n2)nc(Sc2ccc(S(=O)(=O)c3ccccc3)cc2)nc1N1CCN(CCN(C)C)CC1
< 1000 | COc1c(Nc2cc(C)[nH]n2)nc(Sc2ccc(NC(C)=O)cc2)nc1N1CC(C)N(CCN(C)C)C(C)C1 (stereo not drawn)
< 1000 | COc1c(Nc2cc(C)[nH]n2)nc(Sc2ccc(S(=O)(=O)Cc3ccccc3-c3ccccc3)cc2)nc1N1CCN(CCN(C)C)CC1
< 1000 | COc1c(Nc2cc(C)[nH]n2)nc(Sc2ccc([S+](C)[O-])cc2)nc1N1CCN(CCN(C)C)CC1 (stereo not drawn)
< 1000 | COc1c(Nc2cc(C)[nH]n2)nc(Sc2ccc(NC(C)=O)cc2)nc1N1CCC(CCN2CCOCC2)CC1
< 1000 | COc1c(Nc2cc(C)[nH]n2)nc(Sc2ccc(NC(C)=O)cc2)nc1N1CCN(CCS(C)(=O)=O)CC1
< 1000 | COc1c(Nc2cc(C)[nH]n2)nc(Sc2ccc(S(=O)(=O)Cc3cccc([N+](=O)[O-])c3F)cc2)nc1N1CCC(O)CC1

IC50 [nM] | SMILES
< 1000 | COc1c(Nc2cc(C)[nH]n2)nc(Sc2ccc(NC(=O)C3CCCC3)cc2)nc1N(C)C
< 1000 | COc1c(Nc2cc(C)[nH]n2)nc(Sc2ccc(NC(C)=O)cc2)nc1N1CCC(N)CC1
< 1000 | COc1c(Nc2cc(C)[nH]n2)nc(Sc2ccc(S(=O)(=O)Cc3ccccc3)cc2)nc1N1CCN(CCN2CCCCC2)CC1
< 1000 | COc1c(Nc2cc(C)[nH]n2)nc(Sc2ccc(S(=O)(=O)C(C)(C)c3cccc([N+](=O)[O-])c3F)cc2F)nc1N1CC[C@@H](N(C)C)C1
< 1000 | CC(=O)Nc1ccc(Sc2nc(Nc3cc(C)[nH]n3)c(C)c(N3CCN(C(=O)C(C)C)CC3)n2)cc1
< 1000 | COc1c(Nc2cc(C)[nH]n2)nc(Sc2ccc(NC(C)=O)cc2)nc1N1CCN(CC(=O)O)CC1
< 1000 | CNC(=O)Nc1ccc(Sc2nc(Nc3cc(C)[nH]n3)c(OC)c(N3CCN(CCN(C)C)CC3)n2)cc1
> 1000 | CCOc1c(Nc2cc(C)[nH]n2)nc(Sc2ccc(S(=O)(=O)Cc3ccccc3)cc2)nc1N1CCNCC1
< 1000 | COc1c(Nc2cc(C)[nH]n2)nc(Sc2ccc(S(=O)(=O)C(C)(C)c3c(F)c(F)cc(F)c3F)cc2F)nc1N1CC[C@@H](N(C)C)C1
< 1000 | CCOc1c(Nc2cc(C)[nH]n2)nc(Sc2ccc(S(=O)(=O)Cc3ccccc3)cc2)nc1N1CCN(CCN2C3CCCC2CC3)CC1
100 to 1000 | CCOc1c(Nc2cc(C)[nH]n2)nc(Sc2ccc(NC(C)=O)cc2)nc1N1CCNCC1
< 1000 | CNC(=O)Nc1ccc(Sc2nc(Nc3cc(C)[nH]n3)c(C)c(N3CCCCC3)n2)cc1
100 to 1000 | CCSc1c(Nc2cc(C)[nH]n2)nc(Sc2ccc(NC(=O)C3CC3)cc2)nc1N1CCN(C)CC1
> 1000 | CCc1c(Nc2cc(C)[nH]n2)nc(Sc2ccc(NC(=O)C3CC3)cc2)nc1N1CCN(C)CC1
< 1000 | Cc1cc(Nc2nc(Sc3ccccc3)nc(N(C)C(C)C)c2C)n[nH]1
< 1000 | COc1c(Nc2cc(C)[nH]n2)nc(Sc2ccc(S(=O)(=O)Cc3cccc([N+](=O)[O-])c3F)cc2F)nc1N1CCC(NC(C)=O)CC1
100 to 1000 | COc1c(Nc2cc(C)[nH]n2)nc(Sc2ccc(NC(=O)C3CC3)cc2)nc1N1CCN(c2ccccc2)CC1
< 1000 | COc1c(Nc2cc(C)[nH]n2)nc(Sc2ccc(S(=O)(=O)Cc3cccc(C(F)(F)F)c3F)cc2F)nc1N1CCOCC1
< 1000 | COc1c(Nc2cc(C)[nH]n2)nc(Sc2ccc(S(=O)(=O)Nc3cccc([N+](=O)[O-])c3)cc2F)nc1N1CCOCC1
